Laboratory results: US20150366824A1, “INDUCTION OF ESTROGEN RECEPTOR BETA BY CHOLESTEROL BIOSYNTHESIS INHIBITORS AND METHODS OF TREATMENT OF CANCER” (THE CURATORS OF THE UNIVERSITY OF MISSOURI, priority 2012, published 2015)

Columns and labels:
[1] = test system: BT-474 cells; test: Sulforhodamine B (SRB) cell viability assay with ERβ-specific ligands; format: cell-based, human; settings: for cell viability: Ro 48-8071 combined with ERβ agonist DPN: BT-474, 10 nM Ro 48-8071 ± 1 nM DPN, 48 h; for cell viability: Ro 48-8071 combined with ERβ antagonist PHTPP: BT-474, 10 nM Ro 48-8071 ± 10 or 100 nM PHTPP, 24 h
Procedure: FIG. 6. […] BT-474 cells were treated with 10 nM Ro 48-8071±1 nM DPN, or with DPN alone. Cell viability was determined after 48 h using the SRB assay.
FIG. 7. […] BT-474 cells treated with 10 nM Ro 48-8071 for 24 h±10 or 100 nM PH, or with PHTPP alone. Cell viability was determined after 24 h as described previously. […] The anti-proliferative effects of Ro 48-8071 in breast cancer cells is reduced when it is combined with ERβ antagonist.
The sulforhodamine B (SRB) assay was employed to evaluate the effect potent cholesterol biosynthesis inhibitor Ro 48-8071 alone or in combination with ERβ-specific ligands on viability of breast cancer cells, with slight modification of the original procedure established at NCI. Ro 48-8071, and ERβ-specific ligands (either an agonist DPN (diarylpropionitrile), or an antagonist PHTPP (4-[2-phenyl-5,7-bis(trifluoromethyl) pyrazolo[1,5-a]pyrimidin-3-yl]phenol)) (“PH”) were used in BT-474, T47-D, MDA-MB-231, and BT-20 human breast cancer cells in this study.
Accordingly, cells were seeded in 96-well plates in 100 μL culture medium and incubated overnight at 37° C. with 5% CO2. Culture medium was removed after 24 h, and the attached cells were washed with DMEM/F12 medium and treated by Ro 48-8071 alone or with ERβ-specific ligands at various concentrations for 24-48 hrs. […]
The surviving or adherent cells were fixed in situ by withdrawing the growth medium and adding 100 μL of PBS and 100 μL of 50% cold trichloroacetic acid and then incubating at 4° C. for 1 h. Attached cells (that had survived) were washed 5 times with ice-water, dried at room temperature (RT), and then stained with 50 μL […] SRB for 8 min at room temperature (RT). Unbound dye was removed by washing 5 times with cold 1% acetic acid, and the plates were dried at RT. Bound stain was solubilized with 150 μL 10 mM Tris buffer, and absorbance of samples measured at 520 nm with a SpecTRA MAX 190 microplate reader (Sunnyvale, Calif.). Six wells were used for each concentration, and each experiment was performed at least twice.

[2] = test system: T47-D cells; test: SRB cell viability assay after ERβ siRNA knockdown; format: cell-based, human; settings: 60 nM ERβ siRNA, Ro 48-8071 10 nM, 48 h
Procedure: FIG. 5. […] T47-D cells were treated with either ERβ siRNA (30 and 60 nM; siERβ, Santa Cruz), scrambled RNA (siC) or transfection reagent alone (C) for 72 h (upper panel). In the group treated with 60 nM siRNA, cells were treated with Ro 48-8071 (10 nM) or vehicle alone (C) for 48 h (lower panel) and tumor cell viability was determined using SRB assay as described.
ERβ siRNA (human) and control siRNA were obtained from Santa Cruz Biotechnology, Inc. (Santa Cruz, Calif., e.g. catalog no.s SC-35325 and SC-37007). ERβ siRNA is a pool of 3 target-specific 20-25 nt siRNA designed to knock down ERβ gene expression.
Transfection reagent, oligonucleotides and medium, Opti-MEM were from Invitrogen (Carlsbad, Calif.). The day before transfection, cells were seeded in six-well plates at a density of 8×10̂4 cells per well with 10% FBS DMEM/F12 medium.
To make solution A, ERβ siRNA was diluted in Opti-MEM, resulting in a final concentration of 30 or 60 nM in 100 μl/well and incubate for 5 min at room temperature (RT). […]
The surviving or adherent cells were fixed in situ by withdrawing the growth medium and adding 100 μL of PBS and 100 μL of 50% cold trichloroacetic acid and then incubating at 4° C. for 1 h. […] Bound stain was solubilized with 150 μL 10 mM Tris buffer, and absorbance of samples measured at 520 nm with a SpecTRA MAX 190 microplate reader (Sunnyvale, Calif.). […]

[3] = test system: human breast cancer xenografts; test: Human breast cancer xenografts in nude mice; format: in vivo
Procedure: Female athymic nu/nu nude mice, 5 to 6 weeks-old (18-22 g) may be purchased from a number of suppliers, such as Harland Sprague-Dawley, Inc. Nude mice are inoculated with 17β-estradiol pellets (1.7 mg/pellet, 60 days release) 48 hours before inoculating tumor cells. BT-474 human breast cancer cells, 5×10^6 in 0.15 ml solution mixed with matrigel and DMEM/F12 medium (4/1, v/v) are injected into each flank of mouse subcutaneously and both flanks of each mouse are injected. When tumor volume reaches around 100 mm3, animal are randomly assigned to three groups and the treatment started with RO 48-8071 (5 mg/kg/day or 10 mg/kg/day) via tail-vein injection for five days, followed by same treatment every other day for five additional times Animals in control group receive the vehicle alone under identical conditions. Tumor volumes are measured by a digital caliper and calculated using the formula (L×W×H)×0.5236.

[4] = test system: ERα; test: Western blot analysis of ERα protein in breast cancer cells; format: cell-based, human; settings: for expression of ERα protein: treatment for six hours, dose-dependent
Procedure: (§1) Cells used in these experiments included both the ERα+ve as well as ERα-ve cells, including triple negative types which are very aggressive growing. The ERα+ve cells used were T47-D and BT-474 cells. The ERα-ve cells used were MDA-MB-231, BT-20 and SkBr-3 cells. All cells were grown in media as specified in the data sheet from A TCC, provider of cell lines.
(§2) Whole cell extracts of breast cancer cells were prepared using a whole cell extract kit (Active Motif, Carlsbad, Calif.). Briefly, after treatment with Ro 48-8071, cells were washed once with PBS, harvested with 0.05% trypsin-EDT A, and centrifuged at 200 g at 4° C. for 5 min. Cell pellets were resuspended in lysis buffer and supernatant was transferred into pre-chilled microcentrifuge tubes and incubated on ice for 30 minutes. Samples were centrifuged at 14,000×g at 4° C. for 20 minutes, and supernatant was transferred to pre-chilled microcentrifuge tubes. Aliquots of samples were stored at −80° C. For western blot analysis, samples containing 50 μg of protein were separated in a NuPAGE 10% Bis-Tris Gel (Invitrogen, Carlsbad, Calif.).
(§3) Electrophoresis was performed at 120 V for 2 h using NuPAGE MES-SDS Running Buffer. Separated proteins were transferred to polyvinylidene difluoride membranes (BioRad Laboratories, Hercules, Calif.) at 35 V for 1.5 h.
(§4) Blots were blocked at room temperature (RT) for 1 hr in TBS containing 0.1% Tween 20 (TBS-T) and 5% nonfat dry milk and incubated with antibodies for ERα (dilution 1:200) for 2 h at room temperature, and ERβ (dilution 1:150) at 4° C. overnight. Blots were washed 3 times with TBS-T and incubated with secondary antibody for 1 h at RT before being washed a further 7 times with TBS-T.
(§5) Immunoreactive bands were visualized using an ECL Plus detection kit (Amersham, Pharmacia Biotech, Arlington Heights, Ill.). Membranes were stripped and re-blotted for beta-actin (Sigma), which was used as a control for protein loading. β-actin was used as a loading control to determine amount of total protein loaded in each lane.

[5] = target: T1, OSC (Homo sapiens, UniProt P48449); settings: cited from earlier work
T1 sequence (P48449 1-732): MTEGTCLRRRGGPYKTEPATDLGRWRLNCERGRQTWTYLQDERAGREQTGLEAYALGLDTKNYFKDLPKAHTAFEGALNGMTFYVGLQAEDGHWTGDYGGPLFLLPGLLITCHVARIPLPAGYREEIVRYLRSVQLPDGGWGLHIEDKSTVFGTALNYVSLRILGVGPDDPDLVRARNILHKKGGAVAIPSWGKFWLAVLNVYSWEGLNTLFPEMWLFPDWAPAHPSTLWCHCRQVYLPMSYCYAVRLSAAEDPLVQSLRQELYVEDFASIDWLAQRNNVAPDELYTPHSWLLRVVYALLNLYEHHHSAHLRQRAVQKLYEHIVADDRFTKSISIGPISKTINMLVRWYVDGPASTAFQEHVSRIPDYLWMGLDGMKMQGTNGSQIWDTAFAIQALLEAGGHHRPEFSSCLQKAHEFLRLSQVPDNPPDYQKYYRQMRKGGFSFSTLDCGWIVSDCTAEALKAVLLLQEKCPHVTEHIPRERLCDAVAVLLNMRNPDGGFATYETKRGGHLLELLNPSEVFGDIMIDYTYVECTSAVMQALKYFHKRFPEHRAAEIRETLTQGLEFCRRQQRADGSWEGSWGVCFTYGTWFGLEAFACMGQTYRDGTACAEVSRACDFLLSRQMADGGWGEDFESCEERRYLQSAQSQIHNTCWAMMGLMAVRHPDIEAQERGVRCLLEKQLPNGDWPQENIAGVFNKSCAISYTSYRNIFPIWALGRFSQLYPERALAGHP

[6] = test system: Bcl-2; test: Western blot analysis of Bcl-2 protein in T47-D breast cancer cells; format: cell-based, human; settings: treatment for six hours
[7] = test system: ERβ; test: Western blot analysis of ERβ protein in breast cancer cells; format: cell-based, human; settings: for expression of ERβ protein: treatment for six hours, dose-dependent
Procedure: as §1, §2, §3, §4, §5

[8] = low dose, 10 or 100 nM, seven days

With N#CC(Cc1ccc(O)cc1)c1ccc(O)cc1 (stereo not drawn) [DPN, 2,3-bis(4-hydroxyphenyl)-propionitrile] the “cell viability: Ro 48-8071 combined with ERβ agonist DPN” value [1] was “potentiates the ability of Ro 48-8071 to reduce viability”.
With Oc1ccc(-c2c(-c3ccccc3)nn3c(C(F)(F)F)cc(C(F)(F)F)nc23)cc1 [PHTPP, 4-[2-phenyl-5,7-bis(trifluoromethyl)pyrazolo[1,5-a]pyrimidin-3-yl]phenol] the “cell viability: Ro 48-8071 combined with ERβ antagonist PHTPP” value [1] was “blocks the anti-proliferative effect of Ro 48-8071”.
In the case of C=CCN(C)CCCCCCOc1ccc(C(=O)c2ccc(Br)cc2)c(F)c1 [Ro 48-8071, (4-bromophenyl)[2-fluoro-4-[[6-(methyl-2-propenylamino)hexyl]oxy]phenyl]-methanone], the “tumor cell viability: effect of ERβ knockdown on the anti-proliferative effect” value [2] is reported as “blocked the anti-proliferative effect”, the “growth of human breast cancer xenografts” value [3] is reported as “inhibit growing of human breast cancer xenografts” and the “toxicity in xenograft-bearing nude mice” value [3] is reported as “without toxicity”. For the same compound, the “expression of ERα protein” value ([4]; BT-474 breast cancer cells) was “suppressed”, the “expression of ERα protein” value ([4]; T47-D breast cancer cells) was “suppressed” and the “expression of ERα” value [4, 8] was “suppressed”. For the same compound, the “cell viability: Ro 48-8071 combined with ERβ agonist DPN” value [1] was “increased cell death more effectively (additively)”, the “cell viability: Ro 48-8071 combined with ERβ antagonist PHTPP” value [1] was “reduced” and the “OSC inhibition in words” value [5] was “potent inhibitor of OSC”. The “expression of Bcl-2 protein” value [6] was “decreased with increasing dose”, the “expression of ERβ protein” value ([7]; BT-474 breast cancer cells) was “induced” and the “expression of ERβ” value ([7]; ERα-negative (triple-negative) BT-20 cells) was “stimulates expression of ERβ”. The “expression of ERβ” value ([7]; ERα-negative (triple-negative) MDA-MB-231 cells) was “stimulates expression of ERβ”, the “expression of ERβ protein” value ([7]; T47-D breast cancer cells) was “induced” and the “expression of ERβ” value [7, 8] was “induced”.
For CCN(CC)CCO[C@H]1CC[C@@]2(C)C(=CC[C@@H]3[C@@H]2CC[C@]2(C)C(=O)CC[C@@H]32)C1 [U18666A, 3-beta-(2-(diethylamino)ethoxy)androst-5-en-17-one], the “OSC inhibition in words” value [5] is given as “potent inhibitor of OSC”.
